Results on 17 molecules are retold here after patent publication US12331044B2, “Inhibitors of histone deacetylase useful for the treatment or prevention of HIV infection” (Merck Sharp & Dohme LLC, priority 2018, dated 2025).

Where two headings read alike, the source gives them in different places. Bounds are passed on as bounds.

The target of assay [1] is human HDAC3/SMRT heterodimer (Homo sapiens (Human), UniProt O15379). In words: biochemical.
For the next assay, the target named is HDAC6 (Homo sapiens (Human), UniProt Q9UBN7). Nature of the assay: biochemical.
A further assay deals with human HDAC2 (Homo sapiens (Human), UniProt Q92769). Nature of the assay: HDAC2 inhibition assay (modified FLUOR DE LYS, 384-well). The class given is biochemical. The note with it: […] nM enzyme, 40 μM substrate BML-KI104, 3 h pre-incubation; read-out: HDAC2 IC50.
For the next assay, the system named is KARN cells (Jurkat 2C4). Nature of the assay: cells. The note with it: Homo sapiens.
Another assay has as its target human HDAC8 (Homo sapiens (Human), UniProt Q9BY41). Nature of the assay: HDAC8 inhibition assay (modified FLUOR DE LYS, 384-well). It is filed as biochemical. The note with it: […] nM enzyme, 200 μM substrate BML-KI178, 3 h pre-incubation; read-out: HDAC8 IC50.
A further assay has as its target human HDAC1 (Homo sapiens (Human), UniProt Q13547). In words: biochemical.
Where [2] appears, read: read-out: Karn EC50 nM 0.1% NHS, 0.1% normal human serum, luciferase induction, 2 μM SAHA = 100%.
The mark [3] stands for this setting: read-out: Karn EC50 nM 5% NHS, 5% normal human serum, luciferase induction, 2 μM SAHA = 100%.
Setting [4] is: read-out: Karn EC50 nM 0.1% NHS.

Chain of human HDAC8 (Q9BY41 whole entry): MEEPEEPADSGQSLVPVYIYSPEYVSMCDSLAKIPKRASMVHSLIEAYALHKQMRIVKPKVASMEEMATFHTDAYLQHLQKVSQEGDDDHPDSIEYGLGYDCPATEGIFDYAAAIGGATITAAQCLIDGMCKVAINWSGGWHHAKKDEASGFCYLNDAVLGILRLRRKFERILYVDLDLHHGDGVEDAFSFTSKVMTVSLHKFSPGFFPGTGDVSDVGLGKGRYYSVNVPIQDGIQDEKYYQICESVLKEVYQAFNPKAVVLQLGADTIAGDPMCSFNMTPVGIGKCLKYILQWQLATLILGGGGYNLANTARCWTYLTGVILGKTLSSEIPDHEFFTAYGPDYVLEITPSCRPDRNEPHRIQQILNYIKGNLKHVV
Chain of HDAC6 (Q9UBN7 whole entry): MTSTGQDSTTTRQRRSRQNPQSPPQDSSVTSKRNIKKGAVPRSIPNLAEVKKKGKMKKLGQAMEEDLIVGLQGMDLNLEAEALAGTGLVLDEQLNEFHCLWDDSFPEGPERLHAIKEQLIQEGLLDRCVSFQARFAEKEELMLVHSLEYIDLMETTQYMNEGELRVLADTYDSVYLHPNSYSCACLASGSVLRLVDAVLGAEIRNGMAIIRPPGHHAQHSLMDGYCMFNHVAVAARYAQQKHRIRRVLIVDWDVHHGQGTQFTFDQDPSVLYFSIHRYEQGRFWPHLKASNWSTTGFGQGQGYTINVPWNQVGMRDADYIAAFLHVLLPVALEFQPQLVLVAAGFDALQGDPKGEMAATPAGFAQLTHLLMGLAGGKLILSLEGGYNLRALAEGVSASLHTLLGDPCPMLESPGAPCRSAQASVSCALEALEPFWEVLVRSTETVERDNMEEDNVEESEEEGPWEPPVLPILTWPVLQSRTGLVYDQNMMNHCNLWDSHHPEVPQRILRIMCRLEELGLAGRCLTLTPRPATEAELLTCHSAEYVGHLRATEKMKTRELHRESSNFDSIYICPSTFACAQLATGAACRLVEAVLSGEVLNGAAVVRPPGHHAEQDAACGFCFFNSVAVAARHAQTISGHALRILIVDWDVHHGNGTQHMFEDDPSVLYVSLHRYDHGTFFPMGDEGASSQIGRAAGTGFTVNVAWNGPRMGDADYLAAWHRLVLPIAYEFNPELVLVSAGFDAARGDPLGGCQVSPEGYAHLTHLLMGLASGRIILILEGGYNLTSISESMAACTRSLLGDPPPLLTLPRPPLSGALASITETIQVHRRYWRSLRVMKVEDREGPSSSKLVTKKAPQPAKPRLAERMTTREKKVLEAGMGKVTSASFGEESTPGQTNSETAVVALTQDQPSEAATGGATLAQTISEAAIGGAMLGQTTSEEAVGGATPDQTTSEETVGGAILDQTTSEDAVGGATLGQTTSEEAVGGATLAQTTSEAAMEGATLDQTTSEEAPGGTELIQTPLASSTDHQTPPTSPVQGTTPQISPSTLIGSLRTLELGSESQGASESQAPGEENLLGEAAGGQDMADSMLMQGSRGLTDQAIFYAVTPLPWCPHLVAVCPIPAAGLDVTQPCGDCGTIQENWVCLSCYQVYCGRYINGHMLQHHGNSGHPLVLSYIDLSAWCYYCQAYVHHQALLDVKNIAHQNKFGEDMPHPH
Chain of human HDAC3/SMRT heterodimer (O15379 whole entry): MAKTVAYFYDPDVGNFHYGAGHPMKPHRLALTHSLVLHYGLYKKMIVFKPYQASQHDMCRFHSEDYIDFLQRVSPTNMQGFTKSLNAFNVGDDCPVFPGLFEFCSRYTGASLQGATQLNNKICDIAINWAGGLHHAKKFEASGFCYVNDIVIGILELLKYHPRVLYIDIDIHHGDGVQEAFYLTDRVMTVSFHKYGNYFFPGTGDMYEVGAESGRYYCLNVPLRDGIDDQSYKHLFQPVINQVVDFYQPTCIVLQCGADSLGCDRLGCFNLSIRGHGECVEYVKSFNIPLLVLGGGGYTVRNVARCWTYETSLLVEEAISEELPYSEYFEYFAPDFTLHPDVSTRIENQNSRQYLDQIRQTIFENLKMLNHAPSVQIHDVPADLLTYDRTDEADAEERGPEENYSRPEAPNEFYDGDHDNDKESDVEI
Chain of human HDAC3/SMRT heterodimer (Q9Y618 1-899 partner): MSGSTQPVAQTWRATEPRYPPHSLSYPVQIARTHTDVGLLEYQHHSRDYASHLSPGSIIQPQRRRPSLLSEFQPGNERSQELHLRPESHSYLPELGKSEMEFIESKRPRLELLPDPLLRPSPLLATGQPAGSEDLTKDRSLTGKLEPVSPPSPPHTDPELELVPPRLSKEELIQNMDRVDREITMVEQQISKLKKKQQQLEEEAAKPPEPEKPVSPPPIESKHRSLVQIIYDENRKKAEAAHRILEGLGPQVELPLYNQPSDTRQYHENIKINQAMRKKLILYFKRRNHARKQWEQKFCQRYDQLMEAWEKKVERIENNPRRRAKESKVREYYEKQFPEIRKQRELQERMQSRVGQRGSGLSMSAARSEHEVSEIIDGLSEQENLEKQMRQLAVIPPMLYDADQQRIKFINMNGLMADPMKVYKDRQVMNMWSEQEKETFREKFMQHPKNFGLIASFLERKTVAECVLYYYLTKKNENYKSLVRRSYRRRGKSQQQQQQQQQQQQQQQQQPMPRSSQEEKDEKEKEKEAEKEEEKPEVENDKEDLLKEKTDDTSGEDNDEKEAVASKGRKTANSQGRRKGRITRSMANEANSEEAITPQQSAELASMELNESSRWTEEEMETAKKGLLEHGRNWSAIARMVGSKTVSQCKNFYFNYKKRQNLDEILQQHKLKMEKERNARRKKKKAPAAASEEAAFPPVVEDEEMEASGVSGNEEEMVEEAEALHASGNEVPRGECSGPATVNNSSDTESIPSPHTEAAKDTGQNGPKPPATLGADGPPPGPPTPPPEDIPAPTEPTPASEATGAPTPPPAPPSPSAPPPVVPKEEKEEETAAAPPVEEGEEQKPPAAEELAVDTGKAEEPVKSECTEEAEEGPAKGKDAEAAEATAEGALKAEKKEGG
Chain of human HDAC1 (Q13547 whole entry): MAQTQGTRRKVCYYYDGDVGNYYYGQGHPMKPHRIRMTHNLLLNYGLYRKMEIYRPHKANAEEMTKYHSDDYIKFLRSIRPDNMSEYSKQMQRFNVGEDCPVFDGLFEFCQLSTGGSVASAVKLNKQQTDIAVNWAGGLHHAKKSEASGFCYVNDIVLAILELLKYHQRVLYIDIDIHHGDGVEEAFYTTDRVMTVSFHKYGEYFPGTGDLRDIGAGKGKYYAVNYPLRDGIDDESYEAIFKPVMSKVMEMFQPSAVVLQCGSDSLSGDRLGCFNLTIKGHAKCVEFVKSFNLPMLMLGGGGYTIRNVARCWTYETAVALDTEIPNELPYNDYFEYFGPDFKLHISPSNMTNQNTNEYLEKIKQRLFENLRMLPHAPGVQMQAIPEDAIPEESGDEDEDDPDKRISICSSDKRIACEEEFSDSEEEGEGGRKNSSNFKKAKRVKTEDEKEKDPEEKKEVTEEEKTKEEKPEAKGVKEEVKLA
Chain of human HDAC2 (Q92769 whole entry): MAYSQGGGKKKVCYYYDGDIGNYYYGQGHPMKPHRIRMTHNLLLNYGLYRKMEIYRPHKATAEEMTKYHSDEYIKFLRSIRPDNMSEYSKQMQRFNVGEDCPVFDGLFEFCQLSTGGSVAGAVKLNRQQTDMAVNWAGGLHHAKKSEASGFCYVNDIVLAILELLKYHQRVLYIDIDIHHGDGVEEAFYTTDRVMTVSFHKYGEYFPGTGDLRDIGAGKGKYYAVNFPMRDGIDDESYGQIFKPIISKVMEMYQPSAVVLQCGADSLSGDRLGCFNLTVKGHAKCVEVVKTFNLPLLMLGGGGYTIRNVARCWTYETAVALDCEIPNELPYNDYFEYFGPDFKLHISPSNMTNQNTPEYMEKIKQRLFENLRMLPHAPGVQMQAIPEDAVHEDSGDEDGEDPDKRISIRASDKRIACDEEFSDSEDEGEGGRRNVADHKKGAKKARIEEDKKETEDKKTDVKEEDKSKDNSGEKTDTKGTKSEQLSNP
Method for KARN cells (Jurkat 2C4): KARN Assay Cell Maintenance
KARN cells (Jurkat 2C4) were licensed from the laboratory of Dr. John Karn, Case Western Reserve University, School of Medicine. […] An atmosphere of 5% CO2 and 90% humidity was used for all culture work.
These flasks were returned to the incubator.
The cells were gently resuspended in assay media (30 ml) and pelleted again. […] The cells were counted using the ViCell (Beckman Coulter) and diluted as necessary. […] The plates were covered and returned to the incubator prior to compound addition.
The reference compounds, DMSO and SAHA were then added to the compound plate. […] The final high concentration for SAHA and the test compounds in the assays was 40 μM. The final DMSO concentration in all wells was 0.4%. The minimal induction reference compound used was DMSO and the maximal induction reference compound used was SAHA (2 μM final concentration in the assay).
Day 3: The luciferase detection reagent was prepared by transferring the contents of one bottle of Steady-Glo buffer to one bottle of Steady-Glo aubstrate (Steady-Glo Luciferase Assay System, Promega, catalog number E2520), followed by gently mixing until the substrate was thoroughly dissolved and the solution was equilibrated to room temperature. […] The Steady-Glo Reagent was added to the plates (30 μl/well), which were then covered with a black lid and incubated for 10 minutes at room temperature. The plates were then read for luminescence on an Envision (Perkin Elmer) using the ultrasensitive mode (US LUM), 0.1 counts per second and 384-well aperture. Luminescence counts in the DMSO reference wells were considered as 0% induction, while those in the 2 μM SAHA reference wells were considered as 100% induction. Dose response curves were plotted as test compound concentration (X-axis) vs. percent activation (Y-axis) using a 4-parameter fit based on the Levenberg-Marquardt algorithm.
Method for human HDAC8: The histone deacetylase activities of HDAC1, HDAC2, HDAC3, HDAC6, and HDAC8 were measured in modified FLUOR DE LYS assays in 384-well format. In this assay, HDAC enzymes are initially incubated with an F-acetyl (or -trifluoroacetyl)-L-lysine-containing substrate with a C-terminal amide having aminomethylcoumarin as the amine component. HDACs cleave the F-acetyl group, rendering the resulting product susceptible to AMC cleavage by trypsin. The released AMC is then detected by its fluorescence. […] All steps were performed at room temperature (23° C.). The assay was performed by pre-incubating serial dilutions of test compounds with the target HDAC prior to initiation with substrate. […] Final conditions used for each assay were: 1. […] The reactions were stopped and developed by addition of 30 ul of HDAC developer solution containing a saturating level of HDAC inhibitor as follows: 1. […] For data analysis, background subtracted product (fluorescence) vs. time data for each inhibitor concentration was fitted using a 4-parameter fit.

In the case of `COc1nc2ccccc2cc1-c1cnc(CCCCCCC(=O)c2ncco2)[nH]1` [Example 73, 7-(5-(2-methoxyquinolin-3-yl)-1H-imidazol-2-yl)-1-(oxazol-2-yl)heptan-1-one], the IC50 – broadly, the point on the concentration scale where inhibition reaches its midpoint – stood at 4.2 nM in assay [1]; 2500 nM on HDAC6; 16 nM at human HDAC2; 3900 nM on human HDAC8; 3.3 nM at human HDAC1. Further, the EC50 (in general, the concentration at which the effect is half-maximal) in the assay with KARN cells (Jurkat 2C4) (setting [2]) was found to be 840 nM; with KARN cells (Jurkat 2C4) (setting [3]), 15 nM.
Regarding `CCN[C@@H](CCCCCC(=O)c1ncco1)c1ncc(-c2ccc3nc(C)ccc3c2)[nH]1` [Example 74, (S)-7-(ethylamino)-7-(5-(2-methylquinolin-6-yl)-1H-imidazol-2-yl)-1-(oxazol-2-yl)heptan-1-one], the IC50 was 1.8 nM in assay [1]; at least 45000 nM at HDAC6; 5 nM on human HDAC2; 4500 nM on human HDAC8; 1.6 nM against human HDAC1. Besides, the values for the EC50 in the assay with KARN cells (Jurkat 2C4) (setting [2]) and with KARN cells (Jurkat 2C4) (setting [3]) were 140 nM and 200 nM, respectively.
Consider `CN[C@@H](CCCCCC(=O)c1ncco1)c1ncc(-c2cc3ccc(=O)n(C)c3cc2OC)[nH]1` [Example 76, (S)-7-methoxy-1-methyl-6-(2-(1-(methylamino)-7-(oxazol-2-yl)-7-oxoheptyl)-1H-imidazol-5-yl)quinolin-2(1H)-one], for which the IC50 in assay [1] was 2.7 nM; on HDAC6, over 900 nM; on human HDAC2, 6.7 nM; on human HDAC8, over 900 nM; against human HDAC1, 2.2 nM. Moreover, the figures for the EC50 in the assay with KARN cells (Jurkat 2C4) (setting [2]) and with KARN cells (Jurkat 2C4) (setting [3]) were 200 nM and 220 nM, respectively.
Turning to `Cc1ccc2cc(-c3c[nH]c([C@H](CCCCCC(=O)c4ncco4)NC4CCOCC4)n3)ccc2n1` [Example 79, (S)-7-(5-(2-methylquinolin-6-yl)-1H-imidazol-2-yl)-1-(oxazol-2-yl)-7-((tetrahydro-2H-pyran-4-yl)amino)heptan-1-one], the IC50 in assay [1] was 12 nM; against HDAC6, at least 45000 nM; at human HDAC2, 35 nM; on human HDAC8 it was 17000 nM; against human HDAC1, 6.6 nM. For the same molecule, the EC50 in the assay on KARN cells (Jurkat 2C4) (setting [4]) came to 1000 nM; with KARN cells (Jurkat 2C4) (read-out: Karn EC50 nM 5% NHS), 1300 nM.
With `Cc1ccc2cc(-c3c[nH]c([C@H](CCCCCC(=O)c4ncco4)NCc4ccccc4)n3)ccc2n1` [Example 81, (S)-7-(benzylamino)-7-(5-(2-methylquinolin-6-yl)-1H-imidazol-2-yl)-1-(oxazol-2-yl)heptan-1-one], the IC50 in assay [1] stood at 3.7 nM; on HDAC6, 21000 nM; on human HDAC2, 16 nM; on human HDAC8 it was 4900 nM; on human HDAC1, 3.4 nM. Further, the results for the EC50 with KARN cells (Jurkat 2C4) (setting [4]) and in the assay on KARN cells (Jurkat 2C4) (read-out: Karn EC50 nM 5% NHS) were 430 nM and 690 nM, respectively.
`Cc1ccc2cc(-c3cnc([C@H](CCCCCC(=O)c4ncco4)N4CCOCC4)[nH]3)ccc2n1` [Example 83, (S)-7-(5-(2-methylquinolin-6-yl)-1H-imidazol-2-yl)-7-morpholino-1-(oxazol-2-yl)heptan-1-one]: the IC50 was 31 nM in assay [1]; at least 45000 nM against HDAC6; 62 nM on human HDAC2; 12000 nM on human HDAC8; 14 nM against human HDAC1. Moreover, the EC50 with KARN cells (Jurkat 2C4) (setting [2]) amounted to 3400 nM; with KARN cells (Jurkat 2C4) (setting [3]), 4200 nM.
In the case of `COc1cc2nc(C)ccc2cc1-c1cnc([C@H](CCCCCC(=O)c2ncco2)NC2CC(OC)C2)[nH]1` (stereo partly drawn) [Example 84, (S)-7-(5-(7-methoxy-2-methylquinolin-6-yl)-1H-imidazol-2-yl)-7-((3-methoxycyclobutyl)amino)-1-(oxazol-2-yl)heptan-1-one], the IC50 in assay [1] worked out at 7.9 nM; at HDAC6, 13000 nM; on human HDAC2, 22 nM; at human HDAC8, 3100 nM; on human HDAC1 it was 4 nM. The figures for the EC50 with KARN cells (Jurkat 2C4) (setting [2]) and with KARN cells (Jurkat 2C4) (setting [3]) were 490 nM and 540 nM, respectively.
In the case of `COc1cc2nc(C)ccc2cc1-c1cnc([C@H](CCCCCC(=O)c2ncco2)Nc2ncccn2)[nH]1` [Example 85, (S)-7-(5-(7-methoxy-2-methylquinolin-6-yl)-1H-imidazol-2-yl)-1-(oxazol-2-yl)-7-(pyrimidin-2-ylamino)heptan-1-one], the IC50 in assay [1] was 1.5 nM; against HDAC6 it was 250 nM; on human HDAC2, 11 nM; on human HDAC8 it was 210 nM; against human HDAC1, 2.3 nM. Further, the EC50 in the assay with KARN cells (Jurkat 2C4) (setting [2]) stood at 67 nM; with KARN cells (Jurkat 2C4) (setting [3]), 210 nM.
As to `COC(=O)N[C@@H](CCCCCC(=O)c1ncco1)c1ncc(-c2cc3ccc(C)nc3cc2OC)[nH]1` [Example 86, (S)-methyl (1-(5-(7-methoxy-2-methylquinolin-6-yl)-1H-imidazol-2-yl)-7-(oxazol-2-yl)-7-oxoheptyl)carbamate], the IC50 in assay [1] was determined as 1.5 nM; against HDAC6, 40 nM; on human HDAC2, 9.9 nM; on human HDAC8, 160 nM; against human HDAC1 it was 2 nM. Further, the EC50 is 80 nM in the assay with KARN cells (Jurkat 2C4) (setting [2]) and 160 nM with KARN cells (Jurkat 2C4) (setting [3]).
For `CC(=O)N[C@@H](CCCCCC(=O)c1ncco1)c1ncc(-c2ccc3nc(C)ccc3c2)[nH]1` [Example 87, (S)-N-(1-(5-(2-methylquinolin-6-yl)-1H-imidazol-2-yl)-7-(oxazol-2-yl)-7-oxoheptyl)acetamide], the IC50 in assay [1] stood at 1.8 nM; at HDAC6 it was 8600 nM; on human HDAC2, 5.7 nM; on human HDAC8, 130 nM; against human HDAC1, 0.69 nM. Besides, the EC50 in the assay with KARN cells (Jurkat 2C4) (setting [4]) stood at 43 nM; with KARN cells (Jurkat 2C4) (read-out: Karn EC50 nM 5% NHS), 60 nM.
Regarding `O=C(CCCCC[C@H](NC(=O)c1cncs1)c1[nH]c(-c2ccc(F)cc2)nc1Cl)c1ncco1` [Example 88, (S)-N-(1-(4-chloro-2-(4-fluorophenyl)-1H-imidazol-5-yl)-7-(oxazol-2-yl)-7-oxoheptyl)thiazole-5-carboxamide], the IC50 was 0.37 nM in assay [1]; at least 45000 nM against HDAC6; 1.4 nM on human HDAC2; 61 nM on human HDAC8; 0.22 nM on human HDAC1. In addition, the figures for the EC50 in the assay on KARN cells (Jurkat 2C4) (setting [2]) and in the assay on KARN cells (Jurkat 2C4) (setting [3]) were 25 nM and 380 nM, respectively.
As to `COc1cc2nc(C)ccc2cc1-c1cnc([C@H](CCCCCC(=O)c2ncco2)NC(=O)CN(C)C)[nH]1` [Example 89, (S)-2-(dimethylamino)-N-(1-(5-(7-methoxy-2-methylquinolin-6-yl)-1H-imidazol-2-yl)-7-(oxazol-2-yl)-7-oxoheptyl)acetamide], the IC50 in assay [1] worked out at 1.5 nM; at HDAC6, 1700 nM; at human HDAC2, 3.4 nM; on human HDAC8, 69 nM; against human HDAC1, 0.8 nM. Further, the values for the EC50 with KARN cells (Jurkat 2C4) (setting [4]) and in the assay with KARN cells (Jurkat 2C4) (read-out: Karn EC50 nM 5% NHS) were 13 nM and 32 nM, respectively.
In the case of `CCn1ccc2cc(-c3cnc([C@H](CCCCCC(=O)c4ccon4)NC(=O)CN(C)C)[nH]3)c(OC)cc2c1=O` [Example 94, (S)-2-(dimethylamino)-N-(1-(5-(2-ethyl-7-methoxy-1-oxo-1,2-dihydroisoquinolin-6-yl)-1H-imidazol-2-yl)-7-(isoxazol-3-yl)-7-oxoheptyl)acetamide], the IC50 in assay [1] is 0.24 nM; against HDAC6 it was 20000 nM; at human HDAC2 it was 1 nM; on human HDAC8, 5.2 nM; at human HDAC1, 0.26 nM. Moreover, the EC50 in the assay on KARN cells (Jurkat 2C4) (setting [2]) was 3.8 nM; in the assay on KARN cells (Jurkat 2C4) (setting [3]) it was 8.8 nM.
For the molecule `CN(C)CC(=O)N[C@@H](CCCCCC(=O)c1ncco1)c1ncc(-c2ccc3nccnc3c2)[nH]1` [Example 95, (S)-2-(dimethylamino)-N-(7-(oxazol-2-yl)-7-oxo-1-(5-(quinoxalin-6-yl)-1H-imidazol-2-yl)heptyl)acetamide], the IC50 was 2.2 nM in assay [1]; 700 nM against HDAC6; 8.6 nM at human HDAC2; 68 nM at human HDAC8; 1.3 nM against human HDAC1. In addition, the EC50 was determined as 63 nM with KARN cells (Jurkat 2C4) (setting [2]) and 84 nM with KARN cells (Jurkat 2C4) (setting [3]).
Regarding `CCN1CCC2(CC1)C[C@@H]2C(=O)N[C@@H](CCCCCC(=O)c1ncco1)c1[nH]c(-c2ccc(F)cc2)nc1Cl` [Example 97, (S)-N-((S)-1-(4-chloro-2-(4-fluorophenyl)-1H-imidazol-5-yl)-7-(oxazol-2-yl)-7-oxoheptyl)-6-ethyl-6-azaspiro[2.5]octane-1-carboxamide], the IC50 in assay [1] was found to be 0.066 nM; on HDAC6 it was 19000 nM; at human HDAC2 it was 0.38 nM; on human HDAC8, 210 nM; on human HDAC1, 0.049 nM. The EC50 in the assay on KARN cells (Jurkat 2C4) (setting [2]) came out at 4.1 nM; in the assay with KARN cells (Jurkat 2C4) (setting [3]) it was 11 nM.
In the case of `COc1cc2nc(C)ccc2cc1-c1cnc([C@H](CCCCCC(=O)c2ncco2)NC(=O)C2CCN(C)CC2)[nH]1` [Example 98, (S)-N-(1-(5-(7-methoxy-2-methylquinolin-6-yl)-1H-imidazol-2-yl)-7-(oxazol-2-yl)-7-oxoheptyl)-1-methylpiperidine-4-carboxamide], the IC50 was found to be 0.64 nM in assay [1]; 1000 nM against HDAC6; 3.6 nM at human HDAC2; 25 nM on human HDAC8; 0.34 nM against human HDAC1. Also, the EC50 stood at 58 nM in the assay with KARN cells (Jurkat 2C4) (setting [4]) and 170 nM in the assay on KARN cells (Jurkat 2C4) (read-out: Karn EC50 nM 5% NHS).
As for `COc1cc2nc(C)ccc2cc1-c1cnc([C@H](CCCCCC(=O)c2ncco2)NC(=O)C2CN(C)C2)[nH]1` [Example 99, (S)-N-(1-(5-(7-methoxy-2-methylquinolin-6-yl)-1H-imidazol-2-yl)-7-(oxazol-2-yl)-7-oxoheptyl)-1-methylazetidine-3-carboxamide], the IC50 in assay [1] amounted to 0.47 nM; on HDAC6, 1300 nM; at human HDAC2, 2.6 nM; on human HDAC8, 56 nM; on human HDAC1 it was 0.3 nM. The figures for the EC50 with KARN cells (Jurkat 2C4) (setting [4]) and with KARN cells (Jurkat 2C4) (read-out: Karn EC50 nM 5% NHS) were 77 nM and 73 nM, respectively.
